Reference: patent US20230109801A1 (Blue Oak Pharmaceuticals, Inc., priority 2020, published 2023)
Where a name gives a salt, the structure may show the parent alone.

Test system: mice
Assay: SmartCube in vivo neuropharmacological behavioral assay
Conditions: for minimal effective dose: Mus musculus, ip, dose having 50% or more total activity in SmartCube, i.p., read-out: MED (minimal effective dose); for AD: antidepressant, percent probability / AG: analgesic, percent probability / AP: antipsychotic, percent probability / AX: anxiolytic, percent probability / CE: cognitive enhancer, percent probability / HA: hallucinogenic, percent probability / MS: mood stabilizer, percent probability / PS, percent probability / SD: sedative hypnotic, percent probability / SE: side effects, percent probability / UN: uncharacterized CNS activity, percent probability / XG: anxiogenic, percent probability: SmartCube, i.p. 15 min before test, at the MED
In short: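 Mice dosed i.p. with compound in Pharmasolve (NMP) 15 min before automated video capture of behavior; doses e.g. 0.3–30 mg/kg. Behavioral signature compared with reference-drug classes, giving per-class probability (0–100, 0 = LOQ); MED = lowest dose with ≥50% total activity.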

Row | SMILES | minimal effective dose [mg/kg] | AD: antidepressant, percent probability | AG: analgesic, percent probability | AP: antipsychotic, percent probability | AX: anxiolytic, percent probability | CE: cognitive enhancer, percent probability | HA: hallucinogenic, percent probability | MS: mood stabilizer, percent probability | PS, percent probability | SD: sedative hypnotic, percent probability | SE: side effects, percent probability | UN: uncharacterized CNS activity, percent probability | XG: anxiogenic, percent probability
1 | Fc1cc2c(cc1F)C1CCC2N1 [Compound 7, 4,5-Difluoro-11-azatricyclo[6.2.1.0^2,7]undeca-2,4,6-triene hydrochloride] | > 30 | ++ (5% ≤ X < 25%) | ++ (5% ≤ X < 25%) | + (LOQ ≤ X < 5%) | +++ (25% ≤ X < 50%) | + (LOQ ≤ X < 5%) | + (LOQ ≤ X < 5%) | + (LOQ ≤ X < 5%) | + (LOQ ≤ X < 5%) | + (LOQ ≤ X < 5%) | ++ (5% ≤ X < 25%) | + (LOQ ≤ X < 5%) | + (LOQ ≤ X < 5%)
2 | CC1=CC2NC1c1ccccc12 (stereo not drawn) [Compound 61, 9-Methyl-11-azatricyclo[6.2.1.0^2,7]undeca-2,4,6,9-tetraene hydrochloride] | > 30 | ++ (5% ≤ X < 25%) | ++ (5% ≤ X < 25%) | + (LOQ ≤ X < 5%) | + (LOQ ≤ X < 5%) | + (LOQ ≤ X < 5%) | + (LOQ ≤ X < 5%) | + (LOQ ≤ X < 5%) | + (LOQ ≤ X < 5%) | + (LOQ ≤ X < 5%) | + (LOQ ≤ X < 5%) | + (LOQ ≤ X < 5%) | + (LOQ ≤ X < 5%)
3 | c1ccc2c(c1)C1CCC2N1 [Compound 41, hydrochloride] | 10 to 30 | + (LOQ ≤ X < 5%) | ++ (5% ≤ X < 25%) | + (LOQ ≤ X < 5%) | ++ (5% ≤ X < 25%) | ++ (5% ≤ X < 25%) | + (LOQ ≤ X < 5%) | + (LOQ ≤ X < 5%) | + (LOQ ≤ X < 5%) | + (LOQ ≤ X < 5%) | + (LOQ ≤ X < 5%) | ++ (5% ≤ X < 25%) | + (LOQ ≤ X < 5%)
4 | CCC(C)N1C2C=CC1c1ccccc12 (stereo not drawn) [Compound 55, 11-(Butan-2-yl)-11-azatricyclo[6.2.1.0^2,7]undeca-2,4,6,9-tetraene hydrochloride] | 10 to 30 | +++ (25% ≤ X < 50%) | + (LOQ ≤ X < 5%) | + (LOQ ≤ X < 5%) | ++ (5% ≤ X < 25%) | + (LOQ ≤ X < 5%) | + (LOQ ≤ X < 5%) | + (LOQ ≤ X < 5%) | ++ (5% ≤ X < 25%) | + (LOQ ≤ X < 5%) | + (LOQ ≤ X < 5%) | +++ (25% ≤ X < 50%) | + (LOQ ≤ X < 5%)
5 | c1ccc2c(c1)C1CCC2N1C1CCCC1 [Compound 43, 11-Cyclopentyl-11-azatricyclo[6.2.1.0^2,7]undeca-2,4,6-triene hydrochloride] | 10 to 30 | ++++ (50% ≤ X <1 00%) | + (LOQ ≤ X < 5%) | + (LOQ ≤ X < 5%) | ++ (5% ≤ X < 25%) | + (LOQ ≤ X < 5%) | + (LOQ ≤ X < 5%) | + (LOQ ≤ X < 5%) | ++ (5% ≤ X < 25%) | + (LOQ ≤ X < 5%) | + (LOQ ≤ X < 5%) | ++ (5% ≤ X < 25%) | + (LOQ ≤ X < 5%)
6 | Cc1ccc2c(c1)C1CCC2N1C(C)C (stereo not drawn) [Compound 21, 4-Methyl-11-(propan-2-yl)-11-azatricyclo[6.2.1.0^2,7]undeca-2,4,6-triene hydrochloride] | 10 to 30 | ++ (5% ≤ X < 25%) | + (LOQ ≤ X < 5%) | + (LOQ ≤ X < 5%) | ++ (5% ≤ X < 25%) | + (LOQ ≤ X < 5%) | + (LOQ ≤ X < 5%) | + (LOQ ≤ X < 5%) | + (LOQ ≤ X < 5%) | + (LOQ ≤ X < 5%) | ++++ (50% ≤ X <1 00%) | ++ (5% ≤ X < 25%) | + (LOQ ≤ X < 5%)
7 | CC1=C(C)C2c3ccccc3C1N2C(C)C [Compound 60, 9,10-Dimethyl-11-(propan-2-yl)-11-azatricyclo[6.2.1.0^2,7]undeca-2,4,6,9-tetraene hydrochloride] | 10 to 30 | ++++ (50% ≤ X <1 00%) | ++ (5% ≤ X < 25%) | + (LOQ ≤ X < 5%) | + (LOQ ≤ X < 5%) | + (LOQ ≤ X < 5%) | + (LOQ ≤ X < 5%) | + (LOQ ≤ X < 5%) | ++ (5% ≤ X < 25%) | + (LOQ ≤ X < 5%) | + (LOQ ≤ X < 5%) | + (LOQ ≤ X < 5%) | + (LOQ ≤ X < 5%)
8 | COc1ccc2c(c1)C1CCC2N1C(C)C (stereo not drawn) [Compound 35, 4-Methoxy-11-(propan-2-yl)-11-azatricyclo[6.2.1.0^2,7]undeca-2,4,6-triene] | 1 to 10 | + (LOQ ≤ X < 5%) | + (LOQ ≤ X < 5%) | + (LOQ ≤ X < 5%) | ++ (5% ≤ X < 25%) | + (LOQ ≤ X < 5%) | + (LOQ ≤ X < 5%) | + (LOQ ≤ X < 5%) | + (LOQ ≤ X < 5%) | +++ (25% ≤ X < 50%) | + (LOQ ≤ X < 5%) | ++ (5% ≤ X < 25%) | + (LOQ ≤ X < 5%)
9 | CC(C)N1C2CCC1c1c(F)ccc(F)c12 [Compound 34, 3,6-Difluoro-11-(propan-2-yl)-11-azatricyclo[6.2.1.0^2,7]undeca-2,4,6-triene hydrochloride] | > 30 | + (LOQ ≤ X < 5%) | + (LOQ ≤ X < 5%) | + (LOQ ≤ X < 5%) | + (LOQ ≤ X < 5%) | + (LOQ ≤ X < 5%) | + (LOQ ≤ X < 5%) | + (LOQ ≤ X < 5%) | + (LOQ ≤ X < 5%) | + (LOQ ≤ X < 5%) | + (LOQ ≤ X < 5%) | + (LOQ ≤ X < 5%) | + (LOQ ≤ X < 5%)
10 | COCC(C)N1C2CCC1c1ccccc12 (stereo not drawn) [Compound 46, 11-(1-Methoxypropan-2-yl)-11-azatricyclo[6.2.1.0^2,7]undeca-2,4,6-triene hydrochloride] | > 30 | + (LOQ ≤ X < 5%) | ++ (5% ≤ X < 25%) | + (LOQ ≤ X < 5%) | + (LOQ ≤ X < 5%) | + (LOQ ≤ X < 5%) | + (LOQ ≤ X < 5%) | + (LOQ ≤ X < 5%) | + (LOQ ≤ X < 5%) | + (LOQ ≤ X < 5%) | + (LOQ ≤ X < 5%) | + (LOQ ≤ X < 5%) | + (LOQ ≤ X < 5%)
11 | CC1CC2NC1c1ccccc12 (stereo not drawn) [Compound 50, 9-Methyl-11-azatricyclo[6.2.1.0^2,7]undeca-2,4,6-triene hydrochloride] | 10 to 30 | ++ (5% ≤ X < 25%) | ++ (5% ≤ X < 25%) | + (LOQ ≤ X < 5%) | + (LOQ ≤ X < 5%) | ++ (5% ≤ X < 25%) | + (LOQ ≤ X < 5%) | + (LOQ ≤ X < 5%) | + (LOQ ≤ X < 5%) | + (LOQ ≤ X < 5%) | + (LOQ ≤ X < 5%) | +++ (25% ≤ X < 50%) | + (LOQ ≤ X < 5%)
12 | COCC(C)N1C2C=CC1c1ccccc12 (stereo not drawn) [Compound 57, 11-(1-Methoxypropan-2-yl)-11-azatricyclo[6.2.1.0^2,7]undeca-2,4,6,9-tetraene hydrochloride] | > 30 | ++ (5% ≤ X < 25%) | + (LOQ ≤ X < 5%) | + (LOQ ≤ X < 5%) | + (LOQ ≤ X < 5%) | + (LOQ ≤ X < 5%) | + (LOQ ≤ X < 5%) | + (LOQ ≤ X < 5%) | + (LOQ ≤ X < 5%) | + (LOQ ≤ X < 5%) | + (LOQ ≤ X < 5%) | + (LOQ ≤ X < 5%) | + (LOQ ≤ X < 5%)
